Consider three molecules from patent publication US20110044929A1, “FORMULATIONS AND METHODS FOR TREATMENT OF INFLAMMATORY DISEASES” (Vical Incorporated, priority 2004, published 2011).

The subject of data set [1] is patients with intermittent claudication. The note with it: Lederman et al. 2002; cited from earlier work.
The next data set deals with HUVEC cells. As to the kind of experiment: Adenosine release from HUVEC by liquid chromatography. In kind it is cell-based, human. The note with it: over time, normoxic and hypoxic. On the procedure:
For this reason, studies were undertaken to determine the effect of certain poloxamers in vitro in human vascular endothelial cells (HUVEC) and human skeletal muscle myoblast (HSMM) cells under normoxic and hypoxic (5% O2) conditions. Production of adenosine, cytokines, growth factors, or a combination of these biologically relevant molecules was measured after exposure to either poloxamer-188 (˜BASF Pluronic F-68), poloxamer-235 (˜BASF Pluronic P85), cilostazol, Del-1 protein, or medium alone. Monitoring for generation of adenosine was conducted by HPLC. […] This increased level of adenosine was seen over time in both hypoxic and normoxic cells exposed to poloxamer-235.
HUVEC and HSMM cells are harvested after fourth population doubling from the time of purchase by trypsinization. The cells are suspended in appropriate complete medium and plated in a 60×15 culture dishes at the density of […] per well and incubated for 24 hrs. The cells are fed with EBM (HUVEC cells) and SkBM (HSMM cells) culture medium containing 0.5% FCS for 24 hrs to growth-arrest the cells. […]

The test system of data set [2] is patients with intermittent claudication. The note with it: cited from earlier work.
The next data set relates to mice. The experiment in a line: Subcutaneous Matrigel implant model. It counts as in vivo, mouse. The source says:
Poloxamer Inhibition of Inflammation in Murine Study: Initial studies incorporating either FGF (positive control), saline (negative control), Del-1 protein (another known angiogenic agent) or poloxamer-188 into Matrigel that was placed subcutaneously into the lower abdomen of mice yielded interesting results. Matrigel Basement Membrane Matrix (BD Biosciences) is a solubilized basement membrane preparation extracted from the Engelbreth-Holm-Swarm (EHS) mouse sarcoma. Its major component is laminin, followed by collagen IV, heparan sulfate proteoglycans, entactin and nidogen. In the Matrigel angiogenesis model, poloxamer-188 was compared to other known angiogenic agents such as fibroblast growth factor (FGF, positive control), Del-1 protein, or saline as a negative control.
After gaining experience with the system, it was felt that the quantity of Del-1 used should be titrated to see if a dose response with the protein could be distinguished, and to alter the ratio of P188 to matrigel. In the first round of studies it was noted that the 5% P188 concentration added to the Matrigel appeared to inhibit polymerization of the Matrigel. […] Therefore, in the repeat in vivo experiment the Matrigel and poloxamer concentrations were altered such that the initial concentrations were similar to those that yielded good polymerization, but still gave a final concentration of 5% P188 (the concentration tested in clinical trials).
Matrigel implants were placed subcutaneously in the lower abdominal/inguinal region of mice and harvested 4 to 7 days later.

Another data set has as its system CD-1 mice. As to the kind of experiment: Murine hindlimb ischemia model. In kind it is in vivo, mouse. Particulars: repeated intramuscular injections. An excerpt:
A gene-based approach to Del-1 delivery using a plasmid vector was developed for the purpose of enhancing relatively sustained local concentrations with a consequent reduction in systemic exposure to the angiogenic growth factor while at the same time avoiding known adverse effects that may arise with the use of a viral platform.
Results from preclinical studies with recombinant murine Del-1 protein and with formulated Del-1 plasmid compared favorably to results obtained with bFGF and VEGF165. In-house research provided for selection of the non-ionic polymer poloxamer 188 as an important constituent for a pharmaceutical formulation of the Del-1 gene encoded on plasmid DNA. The poloxamer formulation was developed after considerable research to provide for a compound that would give increased expression over DNA in saline.
The effects of formulated hDel-1 plasmid versus formulated VEGF165 plasmid and empty plasmid were investigated in a murine hindlimb ischemia model. Bilateral ischemia was induced in hindlimbs of CD-1 mice by ligation of the femoral artery. A control group underwent sham surgery without femoral artery ligation. […] Exercise tolerance was then determined at weekly intervals through four weeks post surgery.

Like-named read-outs stand apart in the source and are kept apart here.

Turning to “recombinant fibroblast growth factor-2: recombinant fibroblast growth factor-2 of the TRAFFIC study”, the “observed difference in change in PWT versus placebo” value in data set [1] was 1.17 min.

Turning to `O=C1CCc2cc(OCCCCc3nnnn3C3CCCCC3)ccc2N1` [cilostazol], the “adenosine in the supernatant” value in the data set on HUVEC cells is “least stimulatory”. Also, the peak walking time result in data set [2] (100 mg twice/day) is on record as “improve peak walking time”. In data set [2] (Dawson et al. 1998), the “observed difference in change in PWT versus placebo” value is 2.00 min. The “side effects (headaches, palpitations, gastrointestinal disturbances)” value in data set [2] (clinical trials) is reported as “high incidence of side effects”.

B1: Del-1 protein: Developmentally regulated Endothelial Locus-1, an endothelial cell stimulating angiogenic protein (protein, UniProt O43854 24-480, looked up)
EGF-like repeat and discoidin …: DICDPNPCENGGICLPGLADGSFSCECPDGFTDPNCSSVVEVASDEEEPTSAGPCTPNPCHNGGTCEISEAYRGDTFIGYVCKCPRGFNGIHCQHNINECEVEPCKNGGICTDLVANYSCECPGEFMGRNCQYKCSGPLGIEGGIISNQQITASSTHRALFGLQKWYPYYARLNKKGLINAWTAAENDRWPWIQINLQRKMRVTGVITQGAKRIGSPEYIKSYKIAYSNDGKTWAMYKVKGTNEDMVFRGNIDNNTPYANSFTPPIKAQYVRLYPQVCRRHCTLRMELLGCELSGCSEPLGMKSGHIQDYQITASSIFRTLNMDMFTWEPRKARLDKQGKVNAWTSGHNDQSQWLQVDLLVPTKVTGIITQGAKDFGHVQFVGSYKLAYSNDGEHWTVYQDEKQRKDKVFQGNFDNDTHRKNVIDPPIYARHIRILPWSWYGRITLRSELLGCTEEE
Take B1: the “adenosine in the supernatant” value in the data set on HUVEC cells was “least stimulatory”. In the data set with mice (Del-1 less than 200 ugs/ml), the “cellular response of Matrigel implant” value is reported as “substantially less cellular response”. For the same molecule, the “vessel growth in Matrigel angiogenesis model” value in the data set on mice (first round of studies) is “light to moderate vessel growth”. Further, the “morphologic pattern of Matrigel implant (cellularity)” value in the data set with mice (harvested 4 to 7 days, H&E, Del-1 at 200 ug/ml) was “high cellularity”. For the same molecule, the vascular perfusion result in the data set on CD-1 mice is reported as “increased vascular perfusion”.
